Data on one compound can be found in US20060281806A1, “Treatment and inhibition of disease conditions using flexible heteroarotinoids” (priority 2005, published 2006).

Series [1] relates to SiHa human cervical cell line. As to the kind of experiment: In vitro cytotoxicity (SRB growth inhibition) assay, SiHa. The settings on record: 72 h. The class given is cell-based. Also noted: dose or concentration left out as unconfirmed. The procedure: (§1) The SHetA2, SHetA3, SHetA4, SHet50 and 9-cis-RA compounds were evaluated in 4 cervical carcinoma cell lines. The SiHa, CC-1 and C33a human cervical cell lines were maintained in Minimal Essential Media (MEM) containing Earle's salts and L-glutamine supplemented with nonessential amino acids, 1% sodium pyruvate, 10% fetal bovine serum (FBS) and antibiotic/antimycotic. The HT-3 cervical carcinoma cell line was cultured in McCoy's 5a medium supplemented with 10% FBS and antibiotic/antimycotic. Cells were inoculated into 96 well microtiter plates at densities of 1000 cells/well and incubated for 24 h prior to addition of drugs. Drugs were dissolved in dimethyl sulfoxide (DMSO) and diluted in complete medium, prior to addition to triplicate culture wells to achieve final concentrations of […]. Following drug addition, the plates were incubated for 72 h. The assay was terminated by the addition of cold TCA and the cells were stained with 0.4% sulforhodamine B (SRB) in 1% acetic acid. Bound stain was subsequently solubilized with 10 mM trizma base, and the absorbance was read on an automated plate reader at a wavelength of 560 nm. Growth inhibition was determined by dividing the average Optical Density (OD) of the triplicated treated cultures by the average OD of the triplicate control cultures treated with DMSO solvent only. This ratio was converted into a percentage by multiplying by 100. The potency (concentration required to induce half of the maximal activity—GI50) were derived from dose-response graphs generated with results from 3 to 5 individual experiments using GraphPad Software.

The subject of series [2] is C33a human cervical cell line. As to the kind of experiment: In vitro cytotoxicity (SRB growth inhibition) assay, C33a. The class given is cell-based. More on the design: dose or concentration left out as unconfirmed. The settings on record: 72 h. How it is done:
as §1

Series [3] can be described thus: Alanine aminotransferase (ALT) activity in plasma of mice. Type of series: in vivo, mouse. The settings on record: end of treatment, 10 mg/kg/day by gavage. How it is done:
At the end of the treatment period, blood was drawn from each animal. Plasma was separated by centrifugation and stored at −70° C. The activity of ALT was determined in aliquots of plasma by standard spectrophotometric enzymatic techniques which are based on the reduction of pyruvate by lactate dehydrogenase (28). The method measures NADH disappearance with time of incubation at 37° C. The activities are expressed as mm/L/min. Two different amounts of plasma were used in each assay to assure measurement of the maximum rate.

Series [4] deals with dorsal skin of female Skh hairless mice. As to the kind of experiment: Topical irritancy. The class given is in vivo. The settings on record: mouse, in vivo. How it is done: Female Skh hairless mice, 6-8 weeks old, were treated topically on the dorsal skin for 4 days over a 2-log concentration dose range with various compounds. Retinoic acid receptor-Hets were evaluated in A, while retinoic acid receptor-independent Flex-Hets were evaluated in B. Daily flaking and abrasion scores were combined to calculate a single cutaneous toxicity score for each mouse. Each treatment group consisted of 4 mice, and group averages were used to plot cutaneous toxicity against doses of the compounds.
Topical irritancy was evaluated according to published procedures (29). Briefly, female Skh hairless mice, 6-8 weeks old, were treated topically on the dorsal skin for 4 days over a 2-log concentration dose range with various compounds. Daily flaking and abrasion scores were combined to calculate a single cutaneous toxicity score for each mouse. Each treatment group consists of 4 mice, and group averages are used to plot cutaneous toxicity against dose of the retinoid compound.

The next series deals with B16 mouse melanoma. As to the kind of experiment: B16 melanoma syngeneic tumor model. The class given is in vivo. The settings on record: oral 60 mg/kg/day. How it is done:
(§2) FIG. 12. Various Xenograft tumors stained with CD34 antibodies (brown) to identify endothelium. The B16 mouse melanoma cell line was established as a syngeneic tumor in an immunocompetent mouse model and the human Caki renal cancer and A2780 ovarian xenograft tumors in immunocompromised mice. The treated mice were gavaged with 60 mg/kg/day SHetA2 and the untreated were gavaged with solvent only. The tumors were excised and sections were stained with the anti-CD34 antibody to detect endothelial cells (brown stain).
(§3) Survival was the primary endpoint of those studies. […] Tumor growth was the primary endpoint of the renal cancer study.

The subject of series [5] is A2780 ovarian xenograft tumors. As to the kind of experiment: A2780 ovarian xenograft tumor model. The settings on record: oral 60 mg/kg/day. Type of series: in vivo, mouse. How it is done:
as §2, §3

The subject of series [6] is human Caki renal cancer xenografts. As to the kind of experiment: Caki renal cancer xenograft model. Type of series: in vivo, mouse. The procedure:
as §2
FIG. 20. Mice harboring Caki renal cancer xenografts were treated with 60 mg/kg/day SHetA2 or PEG400 vehicle for 15 days. After another 15 days of growth, the tumors were removed, fixed, embedded and sections. Sections were stained with PAS to identify glycoproteins and lysosomes. The untreated tumor is on the left and the treated tumor is on the right.
as §3

A further series relates to Thrombospondin 4 (TSP4). Put plainly: Real time rt-PCR and Western blot validation, TSP-4. The class given is cell-based. The settings on record: 1 μM (rt-PCR, OVCAR-3) and 10 μM (Western blot, A2780). The procedure: FIG. 13. Real Time rt-PCR validation of SHetA2 inhibition of TP and TSP-1 mRNA Expression. OVCAR-3 cultures were treated with 1 μM SHetA2 for the indicated period of time prior to harvesting the cells and isolating RNA. cDNA was prepared and used in real time rt-PCR reactions. Real time rt-PCR was performed on CDNA from cultures various treatment times.
FIG. 14. Western blot validation of SHetA2 inhibition of TP and TSP4 protein expression. A2780 ovarian cancer cells were treated with 10 μM SHetA2 for the indicated amounts of time. Equal amounts of whole cell protein extracts were evaluated by Western blot.
A general note: Quantitative PCR measures a nucleic acid by following its amplification.

The subject of a further series is NF-κB. Put plainly: NF-κB luciferase reporter assay in A2780 cultures. Type of series: cell-based. The conditions noted are these: 10 μM SHetA2, inhibition increased over 4 hours. The procedure: FIG. 15. SHetA2 Inhibition of NF-κB. A2780 cultures were transfected with the NF-κB reporter and treated with 10 μM SHetA2 for the indicated times. Cell lysates were prepared and evaluated for luciferase activity which was normalized for protein concentration.
Because both TP and TSP4 have DNA binding sites for the NFκB transcription factor in their promoter, the ability of SHetA2 to inhibit activity of NF-κB in ovarian cancer cultures was tested using a luciferase reporter plasmid driven by NF-κB sites in the promoter. […] Inhibition increased over the 4 hour evaluation time (FIG. 15).
In general terms: In a reporter assay the amount or activity of a reporter protein is the signal.

The subject of series [7] is SW962 vulvar carcinoma cultures. Put plainly: Annexin-V-Fluos apoptosis assay (flow cytometry). The conditions noted are these: 10 μM; same concentration range as 4-HPR. Type of series: cell-based. How it is done: SW962 vulvar carcinoma cultures were treated with 10 μM of the indicated retinoid or the same volume of solvent. At the specified times, the cultures were labeled with Annexin-V-Fluos and propidium iodide (PI), and the number of apoptotic cells was quantified using dual-laser flow cytometric analysis.

Where only a bound is given, the exact number is not on record here.

`CC1(C)CC(C)(C)c2cc(NC(=S)Nc3ccc([N+](=O)[O-])cc3)ccc2S1` [SHetA2]: the “Efficacy: percent growth inhibition relative to the untreated control” value in series [1] was 68%; in [2], 87%. In addition, the “ALT Activity” value in [3] was determined as 118.5 ± 153.4 mm/liter/min. In series [4], the “topical irritancy (cutaneous toxicity score)” value is listed as “did not induce topical irritancy”. Moreover, the survival entry (in the series with B16 mouse melanoma (melanoma model); in series [5] (ovarian cancer model)) was “improved survival” throughout. Also, the “development of blood vessels inside tumors (anti-CD34 staining)” value with B16 mouse melanoma (melanoma) is given as “inhibited the development of blood vessels”; in [5] (ovarian), “inhibited the development of blood vessels”; in series [6] (renal, oral 60 mg/kg/day) it was “inhibited the development of blood vessels”. Moreover, the tumor growth result in series [6] (renal cancer model, oral 60 mg/kg/day) is on record as “decreased tumor growth”. The “PAS stain: general glycoprotein expression and lysosomal staining” value in series [6] (renal xenograft tumors, 60 mg/kg/day for 15 days, versus untreated tumors) is “increase in general glycoprotein expression and lysosomal staining”. Further, the “expression of TSP-4 at the RNA and protein levels” value in the series with Thrombospondin 4 (TSP4) is on record as “inhibit expression”. In addition, in the series with NF-κB, the “time to inhibition of NF-κB reporter activity” value is not above 30 min. Besides, in [7], the “induction of apoptosis (Annexin-V-Flous assay)” value is recorded as “induced apoptosis”.
